From patent US20260220796A1, “Systems and Methods for High Throughput Single Molecule Tracking in Living Cells” (EIKON THERAPEUTICS, INC., priority 2022, published 2026)
Entries after “also recorded” stand apart in the source; their conditions may differ. Read-outs that look alike come from different tables or passages of the source. Each block holds one molecule with its values, some of them ahead of it.

Columns and labels:
Estrogen Receptor (ER) [1] = biological target: T1, Estrogen Receptor (ER) (Homo sapiens, UniProt P03372); assay: htSMT of Halo-ER in U2OS cells (fbound, Dfree); format: cell-based; conditions: for change in ER fbound (direction): follow-up of screen actives, dose titration or 100 nM
T1 construct: expressed in transfected cells
T1 sequence (P03372 1-595): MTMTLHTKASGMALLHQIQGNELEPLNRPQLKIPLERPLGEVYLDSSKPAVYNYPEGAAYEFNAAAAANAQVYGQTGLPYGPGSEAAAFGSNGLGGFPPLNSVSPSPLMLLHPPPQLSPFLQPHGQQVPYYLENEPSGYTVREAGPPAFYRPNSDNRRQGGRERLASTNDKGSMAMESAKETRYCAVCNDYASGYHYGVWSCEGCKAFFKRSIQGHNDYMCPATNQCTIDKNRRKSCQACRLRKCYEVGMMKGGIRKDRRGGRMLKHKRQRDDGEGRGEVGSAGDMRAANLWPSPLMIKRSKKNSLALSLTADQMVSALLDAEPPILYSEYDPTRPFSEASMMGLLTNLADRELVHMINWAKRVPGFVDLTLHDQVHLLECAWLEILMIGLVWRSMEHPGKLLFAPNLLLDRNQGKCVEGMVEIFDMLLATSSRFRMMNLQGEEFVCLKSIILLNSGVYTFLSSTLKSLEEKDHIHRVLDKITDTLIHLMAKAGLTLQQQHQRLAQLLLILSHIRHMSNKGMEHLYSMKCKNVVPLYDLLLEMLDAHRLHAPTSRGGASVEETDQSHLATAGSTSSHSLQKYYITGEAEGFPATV

[2] = biological target: T2, glucocorticoid receptor (GR) (Homo sapiens, UniProt P04150); assay: htSMT of Halo-GR in U2OS cells; format: cell-based; conditions: 1 μM antagonist, singly or with cognate agonist, FIG. 36D
T2 construct: Because U2OS cells express GR endogenously, HaloTag was inserted right before the stop codon of endogenous NR3C1; endogenous in cells; host or cells: U2OS, CRISPR/Cas9 HaloTag knock-in at the endogenous NR3C1 locus
T2 sequence (P04150 1-777): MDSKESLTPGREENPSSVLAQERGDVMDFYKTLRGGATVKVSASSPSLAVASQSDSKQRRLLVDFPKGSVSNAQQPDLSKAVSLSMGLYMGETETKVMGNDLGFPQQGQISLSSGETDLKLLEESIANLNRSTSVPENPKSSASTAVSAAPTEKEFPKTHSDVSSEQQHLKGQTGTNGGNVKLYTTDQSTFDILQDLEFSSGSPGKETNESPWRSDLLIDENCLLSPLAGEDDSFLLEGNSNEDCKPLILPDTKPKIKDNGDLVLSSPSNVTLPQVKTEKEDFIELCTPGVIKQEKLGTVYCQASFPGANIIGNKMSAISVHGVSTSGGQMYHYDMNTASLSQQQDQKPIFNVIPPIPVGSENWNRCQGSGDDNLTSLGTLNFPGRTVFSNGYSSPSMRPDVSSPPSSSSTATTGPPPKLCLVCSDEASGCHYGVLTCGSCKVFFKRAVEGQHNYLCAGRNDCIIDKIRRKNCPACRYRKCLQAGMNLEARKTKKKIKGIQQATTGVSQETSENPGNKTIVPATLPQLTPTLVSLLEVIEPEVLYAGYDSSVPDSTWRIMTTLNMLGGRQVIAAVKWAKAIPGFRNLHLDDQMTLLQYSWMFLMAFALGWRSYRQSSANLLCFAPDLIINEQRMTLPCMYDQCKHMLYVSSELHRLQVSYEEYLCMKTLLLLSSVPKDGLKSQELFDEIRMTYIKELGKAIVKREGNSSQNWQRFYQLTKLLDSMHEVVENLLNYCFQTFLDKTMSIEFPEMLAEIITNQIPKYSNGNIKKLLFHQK
Text: Where appropriate, compounds were serially diluted in an Echo Qualified 384-Well Low Dead Volume Source Microplate (0018544, Beckman Coulter) to generate dose-titration source material.

androgen receptor (AR) = androgen receptor (AR) (Homo sapiens, UniProt P10275)
Estrogen Receptor (ER) [3] = biological target: T1, Estrogen Receptor (ER); assay: kinetic SMT (kSMT) of ER after compound addition; format: cell-based; conditions: FIG. 18C, 18D
ER = biological target: T3, ER (Homo sapiens, UniProt P03372); assay: Western blot of ER after compound treatment; format: cell-based; conditions: 24 hours prior to lysis; MCF7, T47d, U2OS Halo-ER; FIG. 22A
T3 construct: host or cells: Halo-ER U2OS, MCF7 or T47d (immunofluorescence)
T3 sequence (P03372 1-595): T1 sequence (P03372 1-595)

Estrogen Receptor (ER) [4] = biological target: T1, Estrogen Receptor (ER); assay: residence time imaging of ER-Halo (track length survival); format: cell-based; conditions: 100 nM, versus DMSO, FIG. 18E

Sequence of androgen receptor (AR) (P10275 whole entry): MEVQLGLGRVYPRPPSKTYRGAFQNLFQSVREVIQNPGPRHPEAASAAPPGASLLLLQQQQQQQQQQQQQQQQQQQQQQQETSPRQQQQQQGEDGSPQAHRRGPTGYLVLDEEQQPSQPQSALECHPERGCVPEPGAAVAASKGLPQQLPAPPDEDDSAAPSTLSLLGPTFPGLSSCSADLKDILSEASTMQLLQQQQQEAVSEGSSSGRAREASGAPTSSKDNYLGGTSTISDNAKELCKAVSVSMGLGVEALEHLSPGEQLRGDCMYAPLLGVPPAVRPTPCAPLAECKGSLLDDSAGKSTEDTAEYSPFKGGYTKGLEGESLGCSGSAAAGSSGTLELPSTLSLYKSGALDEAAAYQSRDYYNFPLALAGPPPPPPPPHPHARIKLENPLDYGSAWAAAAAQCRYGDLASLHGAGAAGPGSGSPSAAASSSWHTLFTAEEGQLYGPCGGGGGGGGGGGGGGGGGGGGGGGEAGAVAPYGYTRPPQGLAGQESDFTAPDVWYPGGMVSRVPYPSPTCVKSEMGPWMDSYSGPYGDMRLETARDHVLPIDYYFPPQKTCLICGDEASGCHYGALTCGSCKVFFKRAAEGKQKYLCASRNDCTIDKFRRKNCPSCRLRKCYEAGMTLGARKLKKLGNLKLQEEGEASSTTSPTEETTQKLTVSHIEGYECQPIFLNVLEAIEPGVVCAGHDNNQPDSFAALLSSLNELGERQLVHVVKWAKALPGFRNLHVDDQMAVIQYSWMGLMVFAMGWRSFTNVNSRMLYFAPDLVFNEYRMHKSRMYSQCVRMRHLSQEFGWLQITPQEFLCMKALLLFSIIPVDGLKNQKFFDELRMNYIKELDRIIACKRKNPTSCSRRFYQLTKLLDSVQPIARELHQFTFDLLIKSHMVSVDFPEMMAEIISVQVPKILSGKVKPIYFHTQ

Molecule: 4-hydroxytamoxifen
change in ER fbound / ER movement in bioactive screen (Estrogen Receptor (ER) [1]): significantly increased fbound
maximal increase in fbound, compared (Estrogen Receptor (ER) [1]): lower maximal increases in fbound

Molecule: CC(O)c1cc(C(=O)N[C@@H](C)Cn2ccc(-c3ccc(C#N)c(Cl)c3)n2)[nH]n1 (stereo partly shown) [Darolutamide]
effect on AR chromatin binding (change in fbound) (androgen receptor (AR)): decrease in chromatin binding

Molecule: CC(C)C[C@H](NC(=O)[C@H](Cc1ccccc1)NC(=O)c1cnccn1)B(O)O [bortezomib]
time course of overall effect on ER movement (Estrogen Receptor (ER) [3]): slowly increasing over the four-hour measurement window

Molecule: CC(C)C[C@H](NC(=O)[C@H](CCc1ccccc1)NC(=O)CN1CCOCC1)C(=O)N[C@@H](Cc1ccccc1)C(=O)N[C@@H](CC(C)C)C(=O)[C@@]1(C)CO1 [carfilzomib]
time course of overall effect on ER movement (Estrogen Receptor (ER) [3]): slowly increasing over the four-hour measurement window

Continued, in another order:

effect on GR chromatin binding (change in fbound) [2]: decrease in chromatin binding
Molecule: CN(C)c1ccc(C(c2ccc(N(C)C)cc2)c2cc([N+](=O)[O-])ccc2Cl)cc1 [AL082D06]

change in ER fbound (direction) (Estrogen Receptor (ER) [1]): increase in fbound
time course of overall effect on ER movement (Estrogen Receptor (ER) [3]): reached a plateau after an hour
Molecule: COc1cccc(-c2cc(F)ccc2[C@H]2Cc3nc(N)nc(C)c3C(=O)N2)n1 [HSP990]

ER degradation (western blot) (ER): leads to the degradation of ER
Molecule: C[C@]12CC[C@@H]3c4ccc(O)cc4C[C@@H](CCCCCCCCC[S+]([O-])CCCC(F)(F)C(F)(F)F)[C@H]3[C@@H]1CC[C@@H]2O (stereo partly shown) [fulvestrant]
change in ER fbound / ER movement in bioactive screen (Estrogen Receptor (ER) [1]; 1 μM compound versus DMSO, 5,067-molecule screen, FIG. 15, 18A): increase in fbound; also recorded: significantly increased fbound

change in ER fbound (direction) (Estrogen Receptor (ER) [1]): increase in fbound
time course of overall effect on ER movement (Estrogen Receptor (ER) [3]): reached a plateau after an hour
Molecule: CC(C)c1cc(-c2n[nH]c(=O)n2-c2ccc3c(ccn3C)c2)c(O)cc1O [ganetespib]
decrease in total number of long binding events (Estrogen Receptor (ER) [4]): four
